Target: T1, GST-human KRas166 (G12V) GPPNHP (Homo sapiens, UniProt P01116, G12V)
T1 construct: made in house; host or cells: E. coli C41(DE3)
Experiment: KRas small-molecule screening by SPR (Biacore T200)
Assay type: binding
Conditions: compound 100 uM, 5% DMSO buffer; immobilised GST-KRas166 (G12V) GPPNHP
Description: For SPR assays pGEX-KRAS(G12V) plasmid was transformed into E. coli C41(DE3). Bacterial cells were cultured at 37° C. to an OD600 of 0.6 and induced with IPTG (final 0.1 mM) at 18° C. over night. The GST fusion proteins were extracted from bacteria pellets after cell disruption in 140 mM NaCl, 2.7 mM KCl, 10 mM NaH2PO4, 1.8 mM KH2PO4, 1 mM EDTA, 2 mM MgCl2 pH 7.4 and purified by glutathione-sepharose column chromatography (GE Healthcare), eluting with 50 mM Tris-HCl pH8.0, 10 mM reduced glutathione, 1 mM DTT, 2 mM MgCl2. The eluted proteins were dialysed against 50 mM Tris-HCl pH8.0, 1 mM DTT, 2 mM MgCl2 and concentrated to 10 mg/ml using a Biomax-30 ULTRAFREE-15 centrifugal filter device (Millipore). Purified KRAS protein was loaded with GPPNHP as described elsewhere (Pacold et al., 2000). Loaded protein was then purified by gel filtration on a HiLoad Superdex-75 HR column (GE Healthcare) in 1×PBS pH7.4, 5 mM MgCl2 and concentrated for storage.
Protocol for KRas Small-Molecule Screening and Affinity Measurements by SPR
To a previously immobilized CM5 chip (GE Healthcare BR-1005-30) with anti GST antibody via amine coupling method, GST in channel 1 and GST-human KRas166 (G12V) GPPNHP in channel 2 were immobilised. GST was immobilised between 2,000 and 5,000 Response units. KRAS166 (G12V) was immobilized between 10,000 to 15,000 Response Units.
In a 96 well plate, compounds were diluted in […], 5 mM MgCl2 and 5% DMSO Buffer to a final concentration of 100 uM. DCAl was used as positive control. Experiment also included a solvent correction curve for 5% DMSO. Screening and evaluation of the protein immobilization and the compounds screening was done accordingly to the BIACORE T200 control and evaluation software.
Calculations for how many response units are required for a 1:1 ratio of compound/protein interaction are shown below. • Protein immobilisation: 10,000 RU; average fragment 300 Da in size. • Rmax=(MWA/MWL)×RL×SM • MWA is the molecular weight of the analyte in Da • MWL is the molecular weight of the ligand in Da • RL is the immobilization level in RU • SM is the molar stoichiometry (assume 1:1) • Rmax=300/47,500×10,000×1 • Rmax=63 RU. Cell Viability Assay protocols Assay 1

Compound	SPR Response Units
COc1cccc(-c2cccc3c2O[C@H](CNC(=O)c2ccc(CN4CCN(C)CC4)o2)CO3)n1 [Example 51, 5-(4-Methyl-piperazin-1-ylmethyl)-furan-2-carboxylic acid [(R)-8-(6-methoxy-pyridin-2-yl)-2,3-dihydro-benzo[1,4]dioxin-2-ylmethyl]-amide]	32 Response Units
CN1CCN(Cc2ccc(C(=O)NCC3COc4cccc(-c5cccc(=O)[nH]5)c4O3)o2)CC1 (centres unmarked) [Example 52, 5-(4-Methyl-piperazin-1-ylmethyl)-furan-2-carboxylic acid [8-(6-oxo-1,6-dihydro-pyridin-2-yl)-2,3-dihydro-benzo[1,4]dioxin-2-ylmethyl]-amide]	18 Response Units
CN(C)CCOc1ccc(C(=O)NCC2COc3cccc(-c4cccc(=O)[nH]4)c3O2)cc1 (centres unmarked) [Example 53, 4-(2-dimethylamino-ethoxy)-N-[8-(6-oxo-1,6-dihydro-pyridin-2-yl)-2,3-dihydro-benzo[1,4]dioxin-2-ylmethyl]-benzamide]	52 Response Units
CN(C)Cc1cccc(Nc2ccc(-c3cccc4c3OCCO4)nc2)c1 [Example 59, [6-(2,3-Dihydro-benzo[1,4]dioxin-5-yl)-pyridin-3-yl]-(3-dimethylaminomethyl-phenyl)-amine]	79 Response Units
CN(C)Cc1cccc(Nc2ccc(-c3cccc4c3OCCO4)nn2)c1 [Example 67a, [6-(2,3-Dihydro-benzo[1,4]dioxin-5-yl)-pyridazin-3-yl]-(3-dimethylaminomethyl-phenyl)-amine]	31 Response Units
c1ccc(CN2CCN(c3cccc4c3OCCO4)CC2)cc1 [Example 71, 1-Benzyl-4-(2,3-dihydro-benzo[1,4]dioxin-5-yl)-piperazine]	14 Response Units
COc1nc(-c2cccc3c2OCCO3)ccc1Nc1cccc(CNC(=O)c2cn[nH]c2)c1 [Example 81, 1H-Pyrazole-4-carboxylic acid 3-[6-(2,3-dihydro-benzo[1,4]dioxin-5-yl)-2-methoxy-pyridin-3-ylamino]-benzylamide]	109 Response Units
COc1nc(-c2cccc3c2OC(CNC(=O)C2CCOCC2)CO3)ccc1NC(=O)CC1CCN(C)CC1 (centres unmarked) [Example 82, Tetrahydro-pyran-4-carboxylic acid (8-{6-methoxy-5-[2-(1-methyl-piperidin-4-yl)-acetylamino]-pyridin-2-yl}-2,3-dihydro-benzo[1,4]dioxin-2-ylmethyl)-amide]	12 Response Units
CN1CCN(Cc2ccc(C(=O)NCC3COc4cccc(-c5ccc(NCC6CCOCC6)cn5)c4O3)o2)CC1 (centres unmarked) [Example 83, 5-(4-Methyl-piperazin-1-ylmethyl)-furan-2-carboxylic acid (8-{5-[(tetrahydro-pyran-4-ylmethyl)-amino]-pyridin-2-yl}-2,3-dihydro-benzo[1,4]dioxin-2-ylmethyl)-amide]	16 Response Units
CN1CCC(COc2ccc(-c3cccc4c3OCCO4)nn2)CC1 [Example 85, 3-(2,3-Dihydro-benzo[1,4]dioxin-5-yl)-6-(1-methyl-piperidin-4-ylmethoxy)-pyridazine]	20 Response Units
COc1nc(-c2cccc3c2OCCO3)ccc1NC1CCN(C)C1 (centres unmarked) [Example 86, [6-(2,3-Dihydro-benzo[1,4]dioxin-5-yl)-2-methoxy-pyridin-3-yl]-(1-methyl-pyrrolidin-3-yl)-amine]	17 Response Units
COc1nc(-c2cccc3c2O[C@H](CNC(=O)c2ccc(CN4CCN(C)CC4)o2)CO3)ccc1N [Example 87, 5-(4-Methyl-piperazin-1-ylmethyl)-furan-2-carboxylic acid [(R)-8-(5-amino-6-methoxy-pyridin-2-yl)-2,3-dihydro-benzo[1,4]dioxin-2-ylmethyl]-amide]	56 Response Units
COc1nc(-c2cccc3c2OC(CNC(=O)C2CCOCC2)CO3)ccc1Nc1cccnc1 (centres unmarked) [Example 88, Tetrahydro-pyran-4-carboxylic acid {8-[6-methoxy-5-(pyridin-3-ylamino)-pyridin-2-yl]-2,3-dihydro-benzo[1,4]dioxin-2-ylmethyl]-amide]	161 Response Units
COc1nc(-c2cccc3c2OC(CNC(=O)C2CCOCC2)CO3)ccc1Nc1ccc(C(=O)NCCO)cc1 (centres unmarked) [Example 89, Tetrahydro-pyran-4-carboxylic acid (8-{5-[4-(2-hydroxy-ethylcarbamoyl)-phenylamino]-6-methoxy-pyridin-2-yl}-2,3-dihydro-benzo[1,4]dioxin-2-ylmethyl)-amide]	132 Response Units
COc1nc(-c2cccc3c2OC(CNC(=O)C2CCOCC2)CO3)ccc1Nc1cccc(CN2CCN(C(C)=O)CC2)c1 (centres unmarked) [Example 90, Tetrahydro-pyran-4-carboxylic acid (8-{5-[3-(4-acetyl-piperazin-1-ylmethyl)-phenylamino]-6-methoxy-pyridin-2-yl}-2,3-dihydro-benzo[1,4]dioxin-2-ylmethyl)-amide]	140 Response Units
CN1CCC(NC(=O)c2ccc(Nc3ccc(-c4cccc5c4OC(CNC(=O)C4CCOCC4)CO5)nc3)cc2)CC1 (centres unmarked) [Example 91]	66 Response Units
CN1CCC(CC(=O)Nc2ccc(-c3cccc4c3O[C@H](CNC(=O)C3CCOCC3)CO4)nc2)CC1 [Example 92, Tetrahydro-pyran-4-carboxylic acid ((R)-8-{5-[2-(1-methyl-piperidin-4-yl)-acetylamino]-pyridin-2-yl}-2,3-dihydro-benzo[1,4]dioxin-2-ylmethyl)-amide]	7 Response Units
CN(C)Cc1cccc(Nc2ccc(-c3cccc4c3OC(CNC(=O)C3CCOCC3)CO4)nc2)c1 (centres unmarked) [Example 93]	39 Response Units
COc1nc(-c2cccc3c2OC(CNC(=O)C2CCOCC2)CO3)ccc1Nc1ccc(C(=O)N(C)C)cc1 (centres unmarked) [Example 94, Tetrahydro-pyran-4-carboxylic acid {8-[5-(4-dimethyl-carbamoyl-phenylamino)-6-methoxy-pyridin-2-yl]-2,3-dihydro-benzo[1,4]dioxin-2-ylmethyl}-amide]	111 Response Units
COc1nc(-c2cccc3c2OCCO3)ccc1NC1CCN(C)CC1 [Example 98, [6-(2,3-Dihydro-benzo[1,4]dioxin-5-yl)-2-methoxy-pyridin-3-yl]-(1-methyl-piperidin-4-yl)-amine]	21 Response Units
COc1nc(-c2cccc3c2OCCO3)ccc1NC1CCN(C(C)=O)CC1 [Example 99, 1-{4-[6-(2,3-Dihydro-benzo[1,4]dioxin-5-yl)-2-methoxy-pyridin-3-ylamino]-piperidin-1-yl}-ethanone]	33 Response Units
CN(C)CCOc1ccc(C(=O)NCC2COc3cccc(-c4cc(N5CCOCC5)ccn4)c3O2)cc1 (centres unmarked) [Example 102, 4-(2-Dimethylamino-ethoxy)-N-[8-(4-morpholin-4-yl-pyridin-2-yl)-2,3-dihydro-benzo[1,4]dioxin-2-ylmethyl]-benzamide]	126 Response Units
CN(C)CCOc1ccc(C(=O)NCC2COc3cccc(-c4cccc(N(C)C)n4)c3O2)cc1 (centres unmarked) [Example 103, 4-(2-Dimethylamino-ethoxy)-N-[8-(6-dimethylamino-pyridin-2-yl)-2,3-dihydro-benzo[1,4]dioxin-2-ylmethyl]-benzamide]	64 Response Units
CN(C)CCOc1ccc(C(=O)NCC2COc3cccc(-c4ccccn4)c3O2)cc1 (centres unmarked) [Example 104, 4-(2-Dimethylamino-ethoxy)-N-(8-pyridin-2-yl-2,3-dihydro-benzo[1,4]dioxin-2-ylmethyl)-benzamide]	35 Response Units
CN1CCN(Cc2ccc(C(=O)NCC3COc4cccc(-c5ccc(OCCN6CCOCC6)cn5)c4O3)o2)CC1 (centres unmarked) [Example 107, 5-(4-methyl-piperazin-1-ylmethyl)-furan-2-carboxylic acid {8-[5-(2-morpholin-4-yl-ethoxy)-pyridin-2-yl]-2,3-dihydro-benzo[1,4]dioxin-2-ylmethyl}-amide]	9 Response Units
OCC1COc2cccc(-c3ccc(OCCN4CCOCC4)cn3)c2O1 (centres unmarked) [Example 110, {8-[5-(2-Morpholin-4-yl-ethoxy)-pyridin-2-yl]-2,3-dihydro-benzo[1,4]dioxin-2-yl}-methanol]	4.6 Response Units
